# Where two headings read alike, the source gives them in different places.
# Assays:
# Type in all cases: cell-based
# [1] = system: Staphylococcus aureus FS 289; experiment: Minimum Inhibitory Concentration, Staphylococcus aureus FS 289
# Procedure: (§1) anti-microbial activity tests were carried out on the compounds obtained in the Examples.
# *Staphylococcus aureus FS 289: strain resistant to penicillin
# [2] = system: Pseudomonas aeruginosa 104; experiment: Minimum Inhibitory Concentration, Pseudomonas aeruginosa 104; conditions: Pseudomonas aeruginosa 104; for MIC: read-out: Minimum Inhibitory Concentration
# Procedure: as §1
# [3] = system: Klebsiella pneumoniae 602; experiment: Minimum Inhibitory Concentration, Klebsiella pneumoniae 602; conditions: for MIC: Klebsiella pneumoniae, 602, Klebsiella pneumoniae 602, read-out: Minimum Inhibitory Concentration; for Minimum Inhibitory Concentration: Klebsiella pneumoniae 602
# Procedure: as §1
# Escherichia coli NIHJ = experiment: Minimum Inhibitory Concentration, Escherichia coli NIHJ; conditions: for MIC: read-out: Minimum Inhibitory Concentration
# Procedure: as §1
# Proteus vulgaris HX 19 = experiment: Minimum Inhibitory Concentration, Proteus vulgaris HX 19; conditions: Proteus vulgaris HX 19; for MIC: HX19, read-out: Minimum Inhibitory Concentration
# Procedure: as §1
# [4] = system: Enterobacter aerogeneus No. 75; experiment: Minimum Inhibitory Concentration, Enterobacter aerogeneus No. 75; conditions: Enterobacter aerogeneus No. 75; for MIC: read-out: Minimum Inhibitory Concentration
# Procedure: as §1
# [5] = system: Staphylococcus aureus 209 P; experiment: Minimum Inhibitory Concentration, Staphylococcus aureus 209 P; conditions: Staphylococcus aureus 209 P; for MIC: read-out: Minimum Inhibitory Concentration
# Procedure: as §1
# Serratia No. 72 = experiment: Minimum Inhibitory Concentration, Serratia No. 72
# Procedure: as §1
# [6] = FS289, Staphylococcus aureus FS 289, strain resistant to penicillin, read-out: Minimum Inhibitory Concentration
# [7] = Staphylococcus aureus FS 289, strain resistant to penicillin
"MIC [1, 6]",MIC [2],MIC [3],MIC (Escherichia coli NIHJ; Escherichia coli NIHJ),MIC (Proteus vulgaris HX 19),MIC [4],MIC [5],MIC (Serratia No. 72),Compound,"MIC ([1]; Staphylococcus aureus, FS289, read-out: Minimum Inhibitory Concentration)",MIC (Escherichia coli NIHJ; Escherichia coli),"Minimum Inhibitory Concentration [1, 7]",Minimum Inhibitory Concentration [2],Minimum Inhibitory Concentration [3],Minimum Inhibitory Concentration (Escherichia coli NIHJ; Escherichia coli NIHJ),Minimum Inhibitory Concentration (Proteus vulgaris HX 19),Minimum Inhibitory Concentration [4],Minimum Inhibitory Concentration [5],Minimum Inhibitory Concentration (Serratia No. 72)
6.25 µg/mL,12.5 µg/mL,12.5 µg/mL,12.5 µg/mL,0.2 µg/mL,25 µg/mL,0.39 µg/mL,200 µg/mL,CC(=O)OCC1=C(C(=O)O)N2C(=O)[C@@H](NC(=O)[C@H](NC(=O)c3cnc(O)nc3O)c3ccc(NC(N)=O)cc3)[C@H]2SC1 [Example 6],,,,,,,,,,
6.25 µg/mL,12.5 µg/mL,25 µg/mL,12.5 µg/mL,0.78 µg/mL,25 µg/mL,0.39 µg/mL,> 200 µg/mL,CC(=O)OCC1=C(C(=O)O)N2C(=O)C(NC(=O)C(NC(=O)c3cccnc3O)c3ccc(O)cc3)C2SC1 (centres unmarked) [Example 115],,,,,,,,,,
12.5 µg/mL,3.13 µg/mL,6.25 µg/mL,3.13 µg/mL,0.78 µg/mL,6.25 µg/mL,0.78 µg/mL,12.5 µg/mL,O=C(O)C1=C(CSc2nnc(CO)s2)CSC2C(NC(=O)C(NC(=O)c3cnc4cncnc4c3O)c3cccc(O)c3)C(=O)N12 (centres unmarked) [Example 155],,,,,,,,,,
12.5 µg/mL,6.25 µg/mL,6.25 µg/mL,12.5 µg/mL,0.78 µg/mL,25 µg/mL,0.78 µg/mL,50 µg/mL,CSc1ncc2c(O)c(C(=O)NC(C(=O)NC3C(=O)N4C(C(=O)O)=C(CSc5nnnn5C)CSC34)c3ccc(O)cc3)nnc2n1 (centres unmarked) [Example 173],,,,,,,,,,
6.25 µg/mL,6.25 µg/mL,3.13 µg/mL,6.25 µg/mL,0.39 µg/mL,6.25 µg/mL,0.78 µg/mL,12.5 µg/mL,Cn1nnnc1SCC1=C(C(=O)O)N2C(=O)C(NC(=O)C(NC(=O)c3cnc4sccc4c3O)c3cccc(NC(N)=O)c3)C2SC1 (centres unmarked) [Example 43],,,,,,,,,,
3.13 µg/mL,6.25 µg/mL,12.5 µg/mL,12.5 µg/mL,0.2 µg/mL,25 µg/mL,0.39 µg/mL,> 200 µg/mL,"CC(=O)OCC1=C(C(=O)O)N2C(=O)C(NC(=O)[C@H](NC(=O)c3cnccc3O)c3cccc(N)c3)C2SC1 (stereo partly drawn) [Example 51, 7-[D-α-(4-Hydroxypyridine-3-carbonamide)-α -m-aminophenylacetamido]cephalosporanic acid]",,,,,,,,,,
3.13 µg/mL,3.13 µg/mL,1.56 µg/mL,1.56 µg/mL,0.1 µg/mL,3.13 µg/mL,0.78 µg/mL,12.5 µg/mL,Cc1nnc(SCC2=C(C(=O)O)N3C(=O)C(NC(=O)[C@H](NC(=O)c4cnc5cccnc5c4O)c4ccc(O)cc4)C3SC2)s1 (some centres unmarked) [Example 129],,,,,,,,,,
6.25 µg/mL,3.13 µg/mL,1.56 µg/mL,3.13 µg/mL,0.2 µg/mL,6.25 µg/mL,0.78 µg/mL,12.5 µg/mL,O=C(O)C1=C(CSc2nnc(CO)s2)CSC2C(NC(=O)C(NC(=O)c3cnc4cccnc4c3O)c3ccc(O)c(O)c3)C(=O)N12 (centres unmarked) [Example 178],,,,,,,,,,
12.5 µg/mL,6.25 µg/mL,6.25 µg/mL,12.5 µg/mL,0.78 µg/mL,25 µg/mL,1.56 µg/mL,50 µg/mL,CSc1ncc2c(O)c(C(=O)NC(C(=O)NC3C(=O)N4C(C(=O)O)=C(CSc5nnnn5C)CSC34)c3cccc(O)c3)cnc2n1 (centres unmarked) [Example 162],,,,,,,,,,
6.25 µg/mL,12.5 µg/mL,25 µg/mL,12.5 µg/mL,0.39 µg/mL,12.5 µg/mL,0.78 µg/mL,> 200 µg/mL,"Cc1nnc(SCC2=C(C(=O)O)N3C(=O)C(NC(=O)C(NC(=O)c4cnccc4O)c4ccc(CO)cc4)C3SC2)s1 (racemic) [Example 90, 7-[DL-α-(4-Hydroxypyridine-3carbonamido)-α -p-hydroxymethylphenylacetamido]-3-(2-methyl-1,3,4-thiadiazol-5-yl)thiomethyl-3-cephem-4-carboxylic Acid]",,,,,,,,,,
6.25 µg/mL,6.25 µg/mL,6.25 µg/mL,6.25 µg/mL,0.2 µg/mL,12.5 µg/mL,0.39 µg/mL,50 µg/mL,Cc1nnc(SCC2=C(C(=O)O)N3C(=O)C(NC(=O)[C@H](NC(=O)c4ccnnc4O)c4ccc(O)cc4)C3SC2)s1 (some centres unmarked) [Example 127],,,,,,,,,,
6.25 µg/mL,6.25 µg/mL,3.13 µg/mL,3.13 µg/mL,0.39 µg/mL,6.25 µg/mL,0.78 µg/mL,50 µg/mL,CC(=O)OCC1=C(C(=O)O)N2C(=O)C(NC(=O)[C@H](NC(=O)c3cnc4cccnc4c3O)c3ccc(O)c(Cl)c3)C2SC1 (some centres unmarked) [Example 122],,,,,,,,,,
6.25 µg/mL,12.5 µg/mL,6.25 µg/mL,6.25 µg/mL,0.2 µg/mL,12.5 µg/mL,0.39 µg/mL,100 µg/mL,O=C(O)C1=C(CSc2ccc(O)nn2)CSC2C(NC(=O)C(NC(=O)c3cnccc3O)c3ccc(O)cc3)C(=O)N12 (centres unmarked) [Example 177],,,,,,,,,,
6.25 µg/mL,12.5 µg/mL,12.5 µg/mL,12.5 µg/mL,0.39 µg/mL,25 µg/mL,0.78 µg/mL,100 µg/mL,O=C(O)C1=C(CSc2nnc(CO)s2)CSC2C(NC(=O)C(NC(=O)c3cnccc3O)c3ccc(CO)cc3)C(=O)N12 (centres unmarked) [Example 110],,,,,,,,,,
6.25 µg/mL,6.25 µg/mL,12.5 µg/mL,6.25 µg/mL,0.39 µg/mL,12.5 µg/mL,0.78 µg/mL,50 µg/mL,Cc1nnc(SCC2=C(C(=O)O)N3C(=O)C(NC(=O)C(NC(=O)c4cnccc4O)c4ccc(O)c(O)c4)C3SC2)s1 (centres unmarked) [Example 183],,,,,,,,,,
3.13 µg/mL,6.25 µg/mL,1.56 µg/mL,3.13 µg/mL,0.1 µg/mL,3.13 µg/mL,0.78 µg/mL,25 µg/mL,Cn1nnnc1SCC1=C(C(=O)O)N2C(=O)C(NC(=O)[C@H](NC(=O)c3cnc4cccnc4c3O)c3ccc(O)c(Cl)c3)C2SC1 (some centres unmarked) [Example 132],,,,,,,,,,
,,,,,,,,Cn1nnnc1SCC1=C(C(=O)[O-])N2C(=O)C(NC(=O)C(NC(=O)c3cnc4cccnc4c3O)c3cccc(N)c3)C2SC1.[Na+] (centres unmarked) [Example 55],,,3.13 µg/mL,3.13 µg/mL,3.13 µg/mL,1.56 µg/mL,0.1 µg/mL,3.13 µg/mL,0.78 µg/mL,12.5 µg/mL
12.5 µg/mL,3.13 µg/mL,3.13 µg/mL,6.25 µg/mL,0.2 µg/mL,6.25 µg/mL,0.78 µg/mL,12.5 µg/mL,NCc1nnc(SCC2=C(C(=O)O)N3C(=O)C(NC(=O)C(NC(=O)c4cnc5cccnc5c4O)c4cccc(N)c4)C3SC2)s1 (centres unmarked) [Example 79],,,,,,,,,,
6.25 µg/mL,6.25 µg/mL,3.13 µg/mL,6.25 µg/mL,0.39 µg/mL,25 µg/mL,1.56 µg/mL,50 µg/mL,CC(=O)OCC1=C(C(=O)O)N2C(=O)[C@@H](NC(=O)[C@H](NC(=O)c3cnc4nc(C)c(C)nc4c3O)c3ccc(NC(N)=O)cc3)[C@H]2SC1 [Example 35],,,,,,,,,,
12.5 µg/mL,12.5 µg/mL,6.25 µg/mL,12.5 µg/mL,1.56 µg/mL,12.5 µg/mL,0.78 µg/mL,50 µg/mL,CSc1nc(O)c2c(O)c(C(=O)NC(C(=O)NC3C(=O)N4C(C(=O)O)=C(CSc5nnnn5C)CSC34)c3ccc(O)cc3)cnc2n1 (centres unmarked) [Example 160],,,,,,,,,,
6.25 µg/mL,6.25 µg/mL,3.13 µg/mL,6.25 µg/mL,0.2 µg/mL,6.25 µg/mL,0.78 µg/mL,25 µg/mL,CSc1ncc2c(O)c(C(=O)NC(C(=O)NC3C(=O)N4C(C(=O)O)=C(CSc5cnn[nH]5)CSC34)c3cccc(N)c3)cnc2n1 (centres unmarked) [Example 73],,,,,,,,,,
,,,,,,,,CC(=O)OCC1=C(C(=O)[O-])N2C(=O)C(NC(=O)C(NC(=O)c3cnc4cncnc4c3O)c3ccc(O)cc3)C2SC1.[Na+] (centres unmarked) [Example 141],,,6.25 µg/mL,6.25 µg/mL,6.25 µg/mL,6.25 µg/mL,0.78 µg/mL,12.5 µg/mL,0.78 µg/mL,50 µg/mL
12.5 µg/mL,6.25 µg/mL,3.13 µg/mL,3.13 µg/mL,0.2 µg/mL,6.25 µg/mL,1.56 µg/mL,25 µg/mL,COc1cc(C(NC(=O)c2cnc3cccnc3c2O)C(=O)NC2C(=O)N3C(C(=O)O)=C(CSc4nnc(CO)s4)CSC23)ccc1O (centres unmarked) [Example 157],,,,,,,,,,
6.25 µg/mL,12.5 µg/mL,6.25 µg/mL,6.25 µg/mL,0.78 µg/mL,12.5 µg/mL,1.56 µg/mL,50 µg/mL,CC(=O)OCC1=C(C(=O)O)N2C(=O)C(NC(=O)C(NC(=O)c3cnc4nc(C)ccc4c3O)c3ccc(CO)cc3)C2SC1 (centres unmarked) [Example 99],,,,,,,,,,

Compound,"MIC [1, 6]",MIC [2],MIC [3],MIC (Escherichia coli NIHJ; Escherichia coli NIHJ),MIC (Proteus vulgaris HX 19),MIC [4],MIC [5],MIC (Serratia No. 72),"MIC ([1]; Staphylococcus aureus, FS289, read-out: Minimum Inhibitory Concentration)",MIC (Escherichia coli NIHJ; Escherichia coli),"Minimum Inhibitory Concentration [1, 7]",Minimum Inhibitory Concentration [2],Minimum Inhibitory Concentration [3],Minimum Inhibitory Concentration (Escherichia coli NIHJ; Escherichia coli NIHJ),Minimum Inhibitory Concentration (Proteus vulgaris HX 19),Minimum Inhibitory Concentration [4],Minimum Inhibitory Concentration [5],Minimum Inhibitory Concentration (Serratia No. 72)
"Cc1nnc(SCC2=C(C(=O)O)N3C(=O)[C@@H](NC(=O)Cn4cnnn4)[C@H]3SC2)s1 [CEZ, reference compound]",,> 200 µg/mL,0.78 µg/mL,,6.25 µg/mL,100 µg/mL,0.2 µg/mL,> 200 µg/mL,1.56 µg/mL,1.56 µg/mL,,,,,,,,

# Source: patent US4156724A, “N-acylamino-alpha-arylacetamido cephalosporins and antibacterial compositions and methods containing them” (Sumitomo Chemical Company, Limited, priority 1974, dated 1979)
